Bounds are passed on as bounds.

The values that follow come from patent US10703746B2, “Mutant IDH1 inhibitors useful for treating cancer” (THE UNITED STATES OF AMERICA, AS REPRESENTED BY THE …, priority 2014, dated 2020).

One test deals with IDH1 R132H (Homo sapiens, UniProt O75874, R132H). Nature of the test: IDH1 R132H enzymatic assay (NADPH depletion coupled to diaphorase/resazurin). The class given is biochemical. The note with it: enzymatic inhibition, IDH1 R132H. (In general: Resazurin is reduced to fluorescent resorufin, in cell work by metabolically active cells.)
For another test, the target named is IDH1 R132C (Homo sapiens, UniProt O75874, R132C). Nature of the test: IDH1 R132C enzymatic assay (NADPH depletion coupled to diaphorase/resazurin). In kind it is biochemical. Particulars: enzymatic inhibition, IDH1 R132C. The procedure, abridged: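 NADPH depletion, read via diaphorase/resazurin coupling, after adding substrate at 0.6 mM α-KG and 0.012 mM NADPH. Beforehand, 0.00032 mg/mL enzyme sat with compound 30 min at room temperature in pH 6.5 potassium phosphate buffer with MgCl2, glycerol and BSA.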
Chain of IDH1 R132C (O75874 whole entry R132C): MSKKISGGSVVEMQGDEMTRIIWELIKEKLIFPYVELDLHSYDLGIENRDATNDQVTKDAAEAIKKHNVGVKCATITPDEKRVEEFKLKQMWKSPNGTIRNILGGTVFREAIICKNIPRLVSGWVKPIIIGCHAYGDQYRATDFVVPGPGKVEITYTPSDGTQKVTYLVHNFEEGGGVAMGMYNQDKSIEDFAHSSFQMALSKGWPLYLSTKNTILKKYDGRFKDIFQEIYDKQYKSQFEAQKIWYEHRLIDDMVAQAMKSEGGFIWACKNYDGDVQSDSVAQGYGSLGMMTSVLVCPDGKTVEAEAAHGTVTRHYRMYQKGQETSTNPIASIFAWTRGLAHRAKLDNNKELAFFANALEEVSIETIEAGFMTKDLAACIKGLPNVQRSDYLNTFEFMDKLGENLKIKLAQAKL

Chain of IDH1 R132H (O75874 whole entry R132H): as the sequence (O75874 whole entry R132C) above, with C132H counted along it

`CCOc1ccc(-n2ccc(-c3cc(C(=O)N4CCNCC4)c(CC(C)C)n(-c4c(CC)cccc4CC)c3=O)n2)cc1` [Compound 458]: the 50% inhibitory concentration (IC50) on IDH1 R132H and at IDH1 R132C was less than 0.3 µM each time.

Take `CCc1cccc(CC)c1-n1c(C(C)OC)c(C(=O)N2CCNCC2)cc(-c2nc(-c3ccc(Cl)cc3)cs2)c1=O` (stereo not shown) [Compound 459]: the 50% inhibitory concentration (IC50) on IDH1 R132H and against IDH1 R132C was less than 0.3 µM each time.

As for `Cc1ccc(CN2CCN(C)CC2)cc1-n1c2c(cc(-c3nc(-c4ccc(Cl)cc4)cs3)c1=O)C(=O)CC(C)(C)C2` [Compound 460], the 50% inhibitory concentration (IC50) at IDH1 R132H and at IDH1 R132C was 5 to 20 µM in each case.

Turning to `COc1cccc(OC)c1-n1c(CC(C)C)c(C(=O)N2CCNCC2)cc(-c2nc(-c3ccc(Cl)cc3)cs2)c1=O` [Compound 461], the IC50 (in general, the point on the concentration scale where inhibition reaches its midpoint) against IDH1 R132H was less than 0.3 µM; on IDH1 R132C it was 0.3 to 1 µM.

Turning to `Cc1ccccc1Oc1nc(C)c(C(=O)N2CCNCC2)cc1-c1nc(-c2ccc(Cl)cc2)cs1` [Compound 462], the IC50 at IDH1 R132H and on IDH1 R132C was 5 to 20 µM in each case.

With `CCOc1ccc(Cl)cc1-n1c(C=C(C)C)c(C(=O)N2CCNCC2)cc(-c2nc(-c3ccc(Cl)cc3)cs2)c1=O` [Compound 463], the IC50 against IDH1 R132H and against IDH1 R132C was less than 0.3 µM throughout.

As for `CCc1cccc(CC)c1-n1c(CC(C)C)c(C(=O)N2CCNCC2)cc(-c2nc(-c3ccc(Cl)cc3)c(C(=O)N(C)C)s2)c1=O` [Compound 464], the IC50 lay within 0.3 to 1 µM on IDH1 R132H and 1 to 5 µM against IDH1 R132C.

Take `CCc1cccc(CC)c1-n1c(CC(C)C)c(C(=O)N2CCNC3(CCC3)C2)cc(-c2nc(-c3ccc(Cl)cc3)cs2)c1=O` [Compound 465]: the IC50 against IDH1 R132H and at IDH1 R132C was less than 0.3 µM in each case.

Turning to `CCc1ncc(OC)cc1-n1c(C=C(C)C)c(C(=O)N2CCNCC2)cc(-c2nc(-c3ccc(C(F)F)cn3)cs2)c1=O` [Compound 466], the IC50 at IDH1 R132H was 1 to 5 µM; against IDH1 R132C, 5 to 20 µM.

For `COc1cccc(OC)c1-n1c(C=C(C)C)c(C(=O)N2CCNCC2)cc(-c2nc(-c3ccc(Cl)cc3)cs2)c1=O` [Compound 467], the half-maximal inhibitory concentration (IC50) against IDH1 R132H and against IDH1 R132C was less than 0.3 µM throughout.

For `Cc1cccc(CN2CCN(C)CC2)c1-n1c2c(cc(-c3nc(-c4ccc(Cl)cc4)cs3)c1=O)C(=O)CCC2` [Compound 468], the IC50 on IDH1 R132H and against IDH1 R132C was 5 to 20 µM throughout.

`CCOc1ncc(Cl)cc1-n1c(C=C(C)C)c(C(=O)N2CCNCC2)cc(-c2nc(-c3ccc(C(F)F)cn3)cs2)c1=O` [Compound 469]: the IC50 against IDH1 R132H is 0.3 to 1 µM; against IDH1 R132C, 1 to 5 µM.

`Cc1ccccc1-n1c(C)c(C(=O)N2CCNCC2)cc(-c2nc(-c3ccc(Cl)cc3)cs2)c1=O` [Compound 470]: the IC50 against IDH1 R132H lay in the range of 1 to 5 µM; against IDH1 R132C, 5 to 20 µM.

On to `Cc1conc1-n1c2c(cc(-c3nc(-c4ccc(Cl)cc4)cs3)c1=O)C(=O)CC(C)(C)C2` [Compound 472], for which the IC50 against IDH1 R132H and against IDH1 R132C was 1 to 5 µM throughout.

Consider `CCCc1c(C(=O)N2CCNCC2)cc(-c2nc(-c3ccc(Cl)cc3)cs2)c(=O)n1-c1c(CC)cccc1CC` [Compound 473], for which the IC50 at IDH1 R132H and on IDH1 R132C was less than 0.3 µM each time.

Regarding `CCOc1ncc(F)cc1-n1c(C=C(C)C)c(C(=O)N2CCNCC2)cc(-c2nc(-c3ccc(C(F)F)cn3)cs2)c1=O` [Compound 474], the half-maximal inhibitory concentration (IC50) against IDH1 R132H lay in the range of 0.3 to 1 µM; against IDH1 R132C, 1 to 5 µM.

Consider `CCc1cccc(CC)c1-n1c2c(cc(-c3nc(-c4ccc(Cl)cc4)cs3)c1=O)C(=O)OC(C)(C)C2` [Compound 475], for which the IC50 on IDH1 R132H and against IDH1 R132C was 0.3 to 1 µM in each case.

Regarding `CCOc1ccc(F)cc1-n1c(C=C(C)C)c(C(=O)N2CCNCC2)cc(-c2nc(-c3ccc(C(F)(F)F)nc3)cs2)c1=O` [Compound 477], the IC50 at IDH1 R132H was less than 0.3 µM; against IDH1 R132C it was 0.3 to 1 µM.

As for `CCc1cccc(CC)c1-n1c(C=C(C)C)c(C(=O)N2CCNC(CO)C2)cc(-c2nc(-c3ccc(Cl)cc3)cs2)c1=O` (stereo not shown) [Compound 478], the IC50 at IDH1 R132H and against IDH1 R132C was less than 0.3 µM throughout.

With `CCc1cccc(CC)c1-n1c(C=C(C)C)c(C(=O)N2CCN(c3ccccc3C(F)(F)F)CC2)cc(-c2nc(-c3ccc(Cl)cc3)cs2)c1=O` [Compound 480], the IC50 on IDH1 R132H and against IDH1 R132C was 5 to 20 µM throughout.

On to `O=C1CCCc2c1cc(-c1nc(-c3ccc(Cl)cc3)cs1)c(=O)n2-c1cccnc1` [Compound 481], for which the half-maximal inhibitory concentration (IC50) against IDH1 R132H and on IDH1 R132C was greater than 20 µM throughout.

Turning to `CCc1cccc(CC)c1-n1c(C=C(C)C)c(C(=O)N2CCN[C@H](C)C2)cc(-c2nc(-c3ccc(C(F)(F)F)cc3)cs2)c1=O` [Compound 483], the IC50 on IDH1 R132H and on IDH1 R132C was less than 0.3 µM in each case.

Take `Cc1c(CO)cccc1-n1c2c(cc(-c3nc(-c4ccc(Cl)nc4)cs3)c1=O)C(=O)CCC2` [Compound 486]: the IC50 at IDH1 R132H and against IDH1 R132C was 5 to 20 µM in each case.

With `CCc1cccc(CC)c1-n1c(CC(C)C)c(C(=O)N2CCNCC2)cc(-c2ccn(Cc3ccc(Cl)cc3)n2)c1=O` [Compound 487], the IC50 at IDH1 R132H and against IDH1 R132C was greater than 20 µM throughout.

Consider `CCOc1ncc(F)cc1-n1c(C=C(C)C)c(C(=O)N2CCNCC2)cc(-c2nc(-c3ccc(Cl)cc3)cs2)c1=O` [Compound 488], for which the IC50 at IDH1 R132H and against IDH1 R132C was less than 0.3 µM each time.

As for `CCc1cccc(CC)c1-n1c(C=C(C)C)c(C(=O)N2CCNC(C(C)C)C2)cc(-c2nc(-c3ccc(Cl)cc3)cs2)c1=O` (stereo not shown) [Compound 489], the IC50 against IDH1 R132H and on IDH1 R132C was less than 0.3 µM in each case.

For the molecule `COc1ncc(Cl)cc1-n1c(C=C(C)C)c(C(=O)N2CCNCC2)cc(-c2nc(-c3ccc(Cl)cc3)cs2)c1=O` [Compound 490], the IC50 against IDH1 R132H and against IDH1 R132C was less than 0.3 µM each time.

Regarding `CCc1ccc(Cl)cc1-n1c(C=C(C)C)c(C(=O)N2CCNCC2)cc(-c2nc(-c3ccc(C(F)(F)F)nc3)cs2)c1=O` [Compound 491], the half-inhibitory concentration (IC50) against IDH1 R132H and against IDH1 R132C was less than 0.3 µM in each case.

As to `CCc1cccc(CC)c1-n1c(CC2CC2)c(C(=O)N2CCNCC2)cc(-c2nc(-c3ccc(Cl)nc3)cs2)c1=O` [Compound 492], the IC50 at IDH1 R132H and on IDH1 R132C was less than 0.3 µM each time.

`CN1CCN(c2ccc(-n3c4c(cc(-c5nc(-c6ccc(Cl)cc6)cs5)c3=O)C(=O)CC(C)(C)C4)c(C(F)(F)F)c2)CC1` [Compound 493]: the IC50 at IDH1 R132H and against IDH1 R132C was 5 to 20 µM each time.

For `CC(C)=Cc1c(C(=O)N2CCNCC2)cc(-c2nc(-c3ccc(Cl)cc3)cs2)c(=O)n1-c1c(F)cccc1OC(C)C` [Compound 494], the IC50 on IDH1 R132H and against IDH1 R132C was less than 0.3 µM each time.

Turning to `CC(C)=Cc1c(C(=O)N2CCNCC2)cc(-c2nc(-c3ccc(Cl)cc3)cs2)c(=O)n1-c1cc(C)ccc1OC(C)C` [Compound 496], the IC50 on IDH1 R132H and against IDH1 R132C was less than 0.3 µM each time.

Turning to `CN1CCN(Cc2ccc(-n3c4c(cc(-c5nc(-c6ccc(Cl)cc6)cs5)c3=O)C(=O)CC(C)(C)C4)cc2)CC1` [Compound 498], the IC50 against IDH1 R132H was in the range of 1 to 5 µM; against IDH1 R132C, 5 to 20 µM.

As to `CCc1cccc(CC)c1-n1c(C=C(C)C)c(C(=O)N2CCNC(=O)C2c2ccccc2)cc(-c2nc(-c3ccc(Cl)cc3)cs2)c1=O` (stereo not shown) [Compound 499], the half-maximal inhibitory concentration (IC50) was 0.3 to 1 µM against IDH1 R132H and less than 0.3 µM against IDH1 R132C.

Take `COc1ccc(Cl)c(-n2c(C=C(C)C)c(C(=O)N3CCNCC3)cc(-c3nc(-c4ccc(Cl)cc4)cs3)c2=O)c1` [Compound 500]: the IC50 at IDH1 R132H and against IDH1 R132C was less than 0.3 µM in each case.
